In assay [1] the target is Procathepsin L (Homo sapiens, UniProt P07711). Nature of the assay: Inhibition of human cathepsin L by fluorescence assay.
The target in assay [2] is T1, Cathepsin K (Homo sapiens, UniProt P43235).
T1 sequence (P43235 whole entry): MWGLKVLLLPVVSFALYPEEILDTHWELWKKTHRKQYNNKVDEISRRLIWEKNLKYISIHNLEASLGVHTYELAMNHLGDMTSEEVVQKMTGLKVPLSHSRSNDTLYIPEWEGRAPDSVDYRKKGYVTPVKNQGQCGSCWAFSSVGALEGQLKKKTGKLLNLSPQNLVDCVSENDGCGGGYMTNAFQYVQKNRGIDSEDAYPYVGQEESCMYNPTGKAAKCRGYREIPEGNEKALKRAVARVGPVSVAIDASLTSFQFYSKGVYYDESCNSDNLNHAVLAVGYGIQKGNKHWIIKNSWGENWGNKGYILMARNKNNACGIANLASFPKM
Nature of the assay: Inhibition of human recombinant cathepsin K expressed in baculovirus by fluorescence assay.

Assay [3] addresses Cathepsin S (Homo sapiens, UniProt P25774). The assay is described as follows: Inhibition of human recombinant cathepsin S expressed in baculovirus by fluorescence assay.

Results on 42 compounds are retold here after ChEMBL document CHEMBL1143346, “Solid-phase parallel synthesis and SAR of 4-amidofuran-3-one inhibitors of cathepsin S: effect of sulfonamides P3 substituents on potency and selectivity” (Bioorg Med Chem, 2009).

The structures appear in SMILES notation. pKi: −log10 of the molar value.

Chain of Cathepsin S (P25774 whole entry): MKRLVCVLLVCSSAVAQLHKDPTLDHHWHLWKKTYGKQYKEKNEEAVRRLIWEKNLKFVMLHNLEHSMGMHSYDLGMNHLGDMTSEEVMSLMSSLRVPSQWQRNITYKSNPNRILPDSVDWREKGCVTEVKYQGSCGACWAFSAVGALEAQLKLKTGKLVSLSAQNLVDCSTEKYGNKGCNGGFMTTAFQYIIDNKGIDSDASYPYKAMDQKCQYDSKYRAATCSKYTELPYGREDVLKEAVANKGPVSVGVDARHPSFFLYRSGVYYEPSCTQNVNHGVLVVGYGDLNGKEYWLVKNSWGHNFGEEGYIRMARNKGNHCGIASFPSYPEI
Chain of Procathepsin L (P07711 whole entry): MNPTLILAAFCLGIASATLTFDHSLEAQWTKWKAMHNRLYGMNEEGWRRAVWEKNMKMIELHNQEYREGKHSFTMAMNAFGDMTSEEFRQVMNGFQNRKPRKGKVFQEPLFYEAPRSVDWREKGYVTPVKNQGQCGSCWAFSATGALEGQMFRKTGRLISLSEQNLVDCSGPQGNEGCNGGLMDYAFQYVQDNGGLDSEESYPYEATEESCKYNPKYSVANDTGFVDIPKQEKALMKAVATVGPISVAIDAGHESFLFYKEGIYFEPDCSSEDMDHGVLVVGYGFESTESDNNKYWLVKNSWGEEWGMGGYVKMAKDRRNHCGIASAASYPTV

As a reminder, the pKi is the Ki on a negative log10 scale, so that one unit is a factor of ten. For the compound `CC[C@@H]1OCC(=O)[C@H]1NC(=O)[C@H](CC1(C)CCCC1)NC(=O)c1ccc(N(C)S(C)(=O)=O)cc1`, the values for the pKi in assay [1], in assay [2] and in assay [3] were 4.96, 7.01 and 6.96, respectively.

For the compound `CC[C@@H]1OCC(=O)[C@H]1NC(=O)[C@H](CC1(C)CCCC1)NC(=O)c1ccc(NS(=O)(=O)c2ccccc2)c(Cl)c1`, the pKi in assay [1] was 5.96; in assay [2], 5.80; in assay [3] it was 7.92.

On to `CC[C@@H]1OCC(=O)[C@H]1NC(=O)[C@H](CC1(C)CCCC1)NC(=O)c1ccc(NS(=O)(=O)c2ccccc2)cc1`, for which the pKi in assay [1] is 4.96; in assay [2] it was 6.37; in assay [3], 9.10.

As for `CC[C@@H]1OCC(=O)[C@H]1NC(=O)[C@H](CC(C)(C)C)NC(=O)c1ccsc1`, the pKi in assay [1] was 5.00; in assay [2], 6.50; in assay [3], 7.51.

On to `CC[C@@H]1OCC(=O)[C@H]1NC(=O)[C@H](CC1(C)CCCC1)NC(=O)c1ccc(NS(=O)(=O)c2ccccc2C#N)cc1`, for which the pKi in assay [1] was 5.07; in assay [2] it was 6.09; in assay [3] it was 9.10.

As for `CC[C@@H]1OCC(=O)[C@H]1NC(=O)[C@H](CC1(C)CCCC1)NC(=O)c1ccc(NS(=O)(=O)c2ccc(C#N)cc2)cc1`, the negative-log Ki (pKi) was 5.10 in assay [1], 6.02 in assay [2] and 8.96 in assay [3].

For `CC[C@@H]1OCC(=O)[C@H]1NC(=O)[C@H](CC1(C)CCCC1)NC(=O)c1ccc(S(=O)(=O)NC)cc1`, the pKi was 4.57 in assay [1], 6.38 in assay [2] and 6.85 in assay [3].

On to `CC[C@@H]1OCC(=O)[C@H]1NC(=O)[C@H](CC1(C)CCCC1)NC(=O)c1ccc(NS(=O)(=O)CC)cc1`, for which the pKi is 4.77 in assay [1], 6.33 in assay [2] and 8.72 in assay [3].

`CC[C@@H]1OCC(=O)[C@H]1NC(=O)[C@H](CC1(C)CCCC1)NC(=O)c1ccc(NS(=O)(=O)c2ccccc2)nc1`: the pKi in assay [1] is 4.51; in assay [2], 5.66; in assay [3], 7.25.

Consider `CC[C@@H]1OCC(=O)[C@H]1NC(=O)[C@H](CC1(C)CCCC1)NC(=O)c1ccc(NS(=O)(=O)c2nc(C)cs2)cc1`, for which the results for the negative-log Ki (pKi) in assay [1], in assay [2] and in assay [3] were 4.57, 5.52 and 7.89, respectively.

In the case of `CC[C@@H]1OCC(=O)[C@H]1NC(=O)[C@H](CC1(C)CCCC1)NC(=O)c1ccc(NS(=O)(=O)c2ccccc2C)cc1`, the pKi is 5.08 in assay [1], 6.26 in assay [2] and 8.41 in assay [3].

Take `CC[C@@H]1OCC(=O)[C@H]1NC(=O)[C@H](CC1(C)CCCC1)NC(=O)c1ccc(NS(C)(=O)=O)cc1`: the pKi in assay [1] is 4.92; in assay [2], 6.54; in assay [3], 8.59.

In the case of `CC[C@@H]1OCC(=O)[C@H]1NC(=O)[C@H](CC1(C)CCCC1)NC(=O)c1ccc(NS(=O)(=O)N(C)C)cc1`, the values for the pKi in assay [1], in assay [2] and in assay [3] were 4.80, 6.52 and 8.28, respectively.

As for `CC[C@@H]1OCC(=O)[C@H]1NC(=O)[C@H](CC1(C)CCCC1)NC(=O)c1ccc(NS(=O)(=O)c2cccc(C#N)c2)cc1`, the values for the negative logarithm of the Ki (pKi) in assay [1], in assay [2] and in assay [3] were 5.17, 6.14 and 9.22, respectively.

As for `CC[C@@H]1OCC(=O)[C@H]1NC(=O)[C@H](CC1(C)CCCC1)NC(=O)c1ccc(NS(=O)(=O)c2ccc(F)cc2)cc1`, the pKi is 5.23 in assay [1], 6.43 in assay [2] and 8.70 in assay [3].

Take `CC[C@@H]1OCC(=O)[C@H]1NC(=O)[C@H](CC1(C)CCCC1)NC(=O)c1ccc(NS(=O)(=O)c2cccc(OC)c2)cc1`: the pKi in assay [1] is 4.85; in assay [2] it was 6.57; in assay [3], 9.00.

Take `CC[C@@H]1OCC(=O)[C@H]1NC(=O)[C@H](CC1(C)CCCC1)NC(=O)c1ccc(NS(=O)(=O)C2CC2)cc1`: the pKi in assay [1] is 4.92; in assay [2], 6.36; in assay [3], 8.62.

Take `CC[C@@H]1OCC(=O)[C@H]1NC(=O)[C@H](CC1(C)CCCC1)NC(=O)c1ccc(NS(=O)(=O)c2ccccn2)cc1`: the pKi in assay [1] was 4.89; in assay [2], 6.35; in assay [3], 8.64.

With `CC[C@@H]1OCC(=O)[C@H]1NC(=O)[C@H](CC1(C)CCCC1)NC(=O)c1ccc(NS(C)(=O)=O)c(OC)c1`, the pKi in assay [1] is 5.14; in assay [2] it was 6.25; in assay [3], 7.59.

For the compound `CC[C@@H]1OCC(=O)[C@H]1NC(=O)[C@H](CC1(C)CCCC1)NC(=O)c1ccc(NS(C)(=O)=O)c(Cl)c1`, the results for the pKi in assay [1], in assay [2] and in assay [3] were 6.01, 6.08 and 8.25, respectively.

With `CC[C@@H]1OCC(=O)[C@H]1NC(=O)[C@H](CC1(C)CCCC1)NC(=O)c1ccc(NS(=O)(=O)c2nccn2C)cc1`, the pKi in assay [1] is 4.62; in assay [2], 6.19; in assay [3], 8.35.

Turning to `CC[C@@H]1OCC(=O)[C@H]1NC(=O)[C@H](CC1(C)CCCC1)NC(=O)c1ccc(NS(=O)(=O)c2ncc(C)s2)cc1`, the pKi in assay [1] is 4.77; in assay [2], 5.64; in assay [3] it was 8.07.

On to `CC[C@@H]1OCC(=O)[C@H]1NC(=O)[C@H](CC1(C)CCCC1)NC(=O)c1ccc(NS(C)(=O)=O)nc1`, for which the pKi in assay [1] was 4.85; in assay [2], 5.92; in assay [3], 7.20.

Turning to `CC[C@@H]1OCC(=O)[C@H]1NC(=O)[C@H](CC1(C)CCCC1)NC(=O)c1ccc(NS(=O)(=O)c2cccnc2Cl)cc1`, the pKi is 4.64 in assay [1], 6.10 in assay [2] and 8.23 in assay [3].

`CC[C@@H]1OCC(=O)[C@H]1NC(=O)[C@H](CC1(C)CCCC1)NC(=O)c1ccc(NS(C)(=O)=O)cc1C`: the results for the pKi in assay [1], in assay [2] and in assay [3] were 4.64, 5.72 and 7.52, respectively.

Turning to `CC[C@@H]1OCC(=O)[C@H]1NC(=O)[C@H](CC1(C)CCCC1)NC(=O)c1ccc(NS(=O)(=O)c2sc(C)nc2C)cc1`, the pKi in assay [1] is 4.80; in assay [2], 5.74; in assay [3], 9.15.

For `CC[C@@H]1OCC(=O)[C@H]1NC(=O)[C@H](CC1(C)CCCC1)NC(=O)c1ccc(NS(=O)(=O)C2CCCCC2)cc1`, the negative-log Ki (pKi) is 4.19 in assay [1], 6.02 in assay [2] and 6.74 in assay [3].

With `CC[C@@H]1OCC(=O)[C@H]1NC(=O)[C@H](CC1(C)CCCC1)NC(=O)c1ccc(NS(=O)(=O)C(F)(F)F)cc1`, the pKi in assay [1] was 4.82; in assay [2], 5.92; in assay [3] it was 8.08.

For `CC[C@@H]1OCC(=O)[C@H]1NC(=O)[C@H](CC1(C)CCCC1)NC(=O)c1ccc(NS(=O)(=O)c2cccc(F)c2)cc1`, the pKi is 5.11 in assay [1], 6.28 in assay [2] and 8.47 in assay [3].

With `CCCCS(=O)(=O)Nc1ccc(C(=O)N[C@@H](CC2(C)CCCC2)C(=O)N[C@@H]2C(=O)CO[C@H]2CC)cc1`, the pKi was 4.68 in assay [1], 5.82 in assay [2] and 8.47 in assay [3].

For the compound `CC[C@@H]1OCC(=O)[C@H]1NC(=O)[C@H](CC1(C)CCCC1)NC(=O)c1ccc(NS(=O)(=O)C(C)C)cc1`, the values for the pKi in assay [1], in assay [2] and in assay [3] were 4.82, 6.30 and 8.54, respectively.

With `CC[C@@H]1OCC(=O)[C@H]1NC(=O)[C@H](CC1(C)CCCC1)NC(=O)c1ccc(NS(=O)(=O)c2nc(C(C)C)cs2)cc1`, the results for the pKi in assay [1], in assay [2] and in assay [3] were 5.04, 5.77 and 8.24, respectively.

As to `CC[C@@H]1OCC(=O)[C@H]1NC(=O)[C@H](CC1(C)CCCC1)NC(=O)c1ccc(NS(=O)(=O)c2ccc(OC)cc2)cc1`, the pKi in assay [1] is 4.96; in assay [2], 6.30; in assay [3], 8.48.

`CC[C@@H]1OCC(=O)[C@H]1NC(=O)[C@H](CC1(C)CCCC1)NC(=O)c1ccc(NS(C)(=O)=O)cc1OC`: the pKi was 4.54 in assay [1], 5.30 in assay [2] and 6.48 in assay [3].

With `CC[C@@H]1OCC(=O)[C@H]1NC(=O)[C@H](CC1(C)CCCC1)NC(=O)c1ccc(NS(=O)(=O)Cc2ccccc2)cc1`, the negative-log Ki (pKi) was 4.82 in assay [1], 5.77 in assay [2] and 7.51 in assay [3].

On to `CC[C@@H]1OCC(=O)[C@H]1NC(=O)[C@H](CC1(C)CCCC1)NC(=O)c1cccc(S(=O)(=O)NC)c1`, for which the pKi in assay [1] is 4.82; in assay [2] it was 4.64; in assay [3] it was 6.72.

Regarding `CC[C@@H]1OCC(=O)[C@H]1NC(=O)[C@H](CC1(C)CCCC1)NC(=O)c1ccc(NS(=O)(=O)c2ccc(N)cc2)cc1`, the pKi is 5.04 in assay [1], 6.02 in assay [2] and 8.89 in assay [3].

In the case of `CC[C@@H]1OCC(=O)[C@H]1NC(=O)[C@H](CC1(C)CCCC1)NC(=O)c1ccc(NS(=O)(=O)c2cccs2)cc1`, the values for the pKi in assay [1], in assay [2] and in assay [3] were 4.89, 6.00 and 8.64, respectively.

Take `CC[C@@H]1OCC(=O)[C@H]1NC(=O)[C@H](CC1(C)CCCC1)NC(=O)c1cccc(NS(C)(=O)=O)c1`: the pKi in assay [1] is 5.60; in assay [2] it was 5.82; in assay [3], 7.92.

Regarding `CC[C@@H]1OCC(=O)[C@H]1NC(=O)[C@H](CC1(C)CCCC1)NC(=O)c1ccc(NS(=O)(=O)c2ccccc2)c(C)c1`, the pKi was 5.64 in assay [1], 6.14 in assay [2] and 8.40 in assay [3].

Turning to `CC[C@@H]1OCC(=O)[C@H]1NC(=O)[C@H](CC1(C)CCCC1)NC(=O)c1ccc(NS(C)(=O)=O)c(C)c1`, the pKi in assay [1] is 5.70; in assay [2] it was 6.62; in assay [3], 8.31.

Regarding `CC[C@@H]1OCC(=O)[C@H]1NC(=O)[C@H](CC1(C)CCCC1)NC(=O)c1ccc(NS(=O)(=O)c2cccnc2)cc1`, the pKi in assay [1] was 4.85; in assay [2], 6.24; in assay [3] it was 8.68.
